Measurements: patent US20040162328A1, “Compounds of the family of 3-alkyl-(4,5-diphenyl-imidazol-1-yl) and their use as soothing agents” (priority 2001, published 2004)
Like-named read-outs stand apart in the source and are kept apart here.

Test system: interleukin-8 secreted by normal human epidermal keratinocytes (NHEKs)
Assay: Inhibition of interleukin-8 secretion by NHEK cells after stimulation with PMA as irritant agent
Type: cell-based
Conditions: 160 nM PMA
Source text: Inhibition of the response of superficial epidermal cells to an irritant agent by assay of the interleukin-8 secreted by normal human epidermal keratinocytes (NHEKS) after stimulation with phorbol 12-myristate 13-acetate (PMA) as irritant agent.
This study uses the test developed by Wilmer [Wilmer, J. L. et al., J. invest. Dermatol., 102: 915-922 (1994)]. This test allows the evaluation of the antiirritant potential of various molecules, on a human keratinocyte (NHEK) cell line. In this test, an irritant situation is mimicked by exacerbating the production of IL-8 of the NHEKs by adding PMA to the culture medium, IL-8 being involved in initiating the keratinocyte irritation. The antiirritant effect of a molecule is then measured by means of its inhibitory action with respect to this exacerbated production.
Normal human epidermal keratinocytes (NHEKs) sold by the company Clonetics and distributed in France by the company TEBU are incubated in the presence of 160 nM of PMA for 24 hours at 37° C. In response to the PMA, the production of the chemotactic agent interleukin-8 (IL-8) is measured by enzymatic assay using an assay kit (Elisa D8050) sold by the company R&D. The absorbance values are measured using a microplate reader (MRX/Dynatech) according to the procedures supplied with the assay kit. To evaluate the antiirritant protective effect of the various compounds, the production of the chemotactic marker IL-8 by the human keratinocytes is measured in the presence of various concentrations of the test compound.
The results are expressed as a percentage of the control values after subtracting the background noise and as a percentage of inhibition of these values obtained in the presence of the compounds.

[1] = Study No. 2 (Comparative Tests), compound at 10 μM, same batch of NHEK cells, 24 hours, read-out: % inhibition of secretion of IL-8

O=C1c2ccccc2C(=O)N1CCCn1cnc(-c2ccccc2)c1-c1ccccc1 [Example 4, 3-phthalimidepropyl-(4,5-diphenyl-imidazol)-1-yl] showed an inhibition at 10 µM [1] of 37%.
In the case of COC(=O)CCCn1cnc(-c2ccccc2)c1-c1ccccc1 [Example 5, methyl (4,5-diphenyl-imidazol)-1-ylpropyl-3-carboxylate], the inhibition at 10 µM [1] is reported as 22%.
For c1ccc(-c2ncn(CCCN3CCOCC3)c2-c2ccccc2)cc1 [Example 1, 4-[3-(4,5-diphenylimidazol-1-yl)-propyl]morpholine], the inhibition at 1 µM (Study No. 1, compound at 1 μM, NHEK, 24 hours at 37° C., read-out: % inhibition of secretion of IL-8 (at 1 μM)) was 86%, the inhibition at 10 µM (Study No. 1, compound at 10 μM, NHEK, 24 hours at 37° C., read-out: % inhibition of secretion of IL-8 (at 10 μM)) was 95% and the inhibition at 10 µM [1] was 35%.
In the case of c1ccc(-c2ncn(CCCN3CCCCC3)c2-c2ccccc2)cc1 [Example 6], the inhibition at 10 µM [1] is reported as 41%.
COC(=O)CCCCn1cnc(-c2ccccc2)c1-c1ccccc1 [Example 2, methyl (4,5-diphenyl-imidazole)-1-ylbutyl-4-carboxylate] gave an inhibition at 10 µM [1] of 10%.
In the case of O=C1c2ccccc2C(=O)N1CCCCn1cnc(-c2ccccc2)c1-c1ccccc1 [Example 3, 4-phthalimidebutyl-(4,5-diphenyl-imidazol)-1-yl], the inhibition at 10 µM [1] is reported as 39%.
With c1ccc(-c2ncn(CCN3CCCCC3)c2-c2ccccc2)cc1 [JP 44 029 199, reference compound] the inhibition at 10 µM [1] was < 10%.
